In patent publication US20110280940A1, “Di-Vanilloyl And Tri-Vanilloyl Derivatives For Use In Anti-Cancer Therapy” (priority 2008, published 2011):
Where two headings read alike, the source gives them in different places.

Assays:
VM48 melanoma cells = assay: MTT colorimetric assay, overall cell growth, VM48; format: cell-based, human; conditions: Homo sapiens, read-out: In Vitro IC50 Growth Inhibitory Values, VM48
[1] = tested on: Eleven human cancer cell lines; assay: MTT colorimetric assay, across the eleven human cancer cell lines; format: cell-based
Method in brief: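 Growth is measured as remaining living cells relative to untreated controls after 72 h at 37 °C with compound at 10^-8 to 10^-4 M. Readout is MTT formazan absorbance at 570 nm.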

WEE1 kinase = target: T1, WEE1 kinase (Homo sapiens, UniProt P30291); assay: Radiometric protein kinase assay (33 PanQinase), WEE1; format: biochemical; conditions: for IC50: dose-response 0-100 μM, n=3, read-out: IC50: Concentration of drug needed in order to inhibit kinase activity by 50%, WEE1; for inhibition at 57 µM: read-out: inhibition of WEE1 activity
T1 construct: made in house
Experimental: A radiometric protein kinase assay (33 PanQinase®Activity Assay) was used for measuring the kinase activity of 250 protein kinases. All kinase assays were performed in 96-well flashPlates™ from Perkin Elmer (Boston, Mass., USA) in a 50 μl reaction volume. The reaction cocktail was pipetted in 4 steps in the following order: • 10 μl of non-radioactive ATP solution (in H2O) • 25 μl of assay buffer/[γ-33P]-ATP mixture • 5 μl of test sample in 10% DMSO • 10 μl of enzyme/substrate mixture
The assay for all enzymes contained 60 mM HEPES-NaOH, pH 7.5, 3 mM MgCl2, 3 mM MnCl2, 3 μM Na-orthovanadate, 1.2 mM DTT, 50 μg/ml PEG20000, 1 μM ATP/[γ-33P]-ATP (approx. […] per well), protein kinase, and substrate. All PKC assays (except the PKC-mu and the PKC-nu assay) additionally contained 1 mM CaCl2, 4 mM EDTA, 5 μg/ml Phosphatidylserine and 1 μg/ml 1,2-Dioleyl-glycerol. The MYLK2, CAMK1D, CAMK2A, CAMK2B, CAMK2D, CAMK4, CAMKK2, DAPK2 and EEF2K assays additionally contained 1 μg/ml Calmodulin and 0.5 mM CaCl2. The PRKG1 and PRKG2 assays additionally contained 1 μM cGMP.
The protein kinases were expressed either in Sf9 insect cells or in E. coli as recombinant GST-fusion proteins or as His-tagged proteins. All kinases were produced from human cDNAs. Kinases were purified by affinity chromatography using either GSH-agarose (Sigma) or Ni-NTH-agarose (Qiagen). The purity of the protein kinases was examined by SDS-PAGE/coomassie staining. The identity of the protein kinases was checked by mass spectroscopy.
The reaction cocktails were incubated at 30° C. for 60 minutes. The reaction was stopped with 50 μl of 2% (v/v) H3PO4, plates were aspirated and washed two times with 200 μl 0.9% (w/v) NaCl. All assays were performed with a BeckmanCoulter Biomek 2000/SL robotic system.
Incorporation of ^33Pi (counting of “cpm”) was determined with a microplate scintillation counter (Microbeta, Wallac).
For each kinase, the median value of the cpm of three wells with complete reaction cocktails, but without kinase, was defined as “low control” […]. This value reflects unspecific binding of radioactivity to the plate in the absence of protein kinase but in the presence of the substrate. Additionally, for each kinase the median value of the cpm of three other wells with the complete reaction cocktail, but without any compound, was taken as the “high control”, i.e. full activity in the absence of any inhibitor […]. The difference between high and low control of was taken as 100% activity for each kinase. As part of the data evaluation the low control value of each kinase was subtracted from the high control value as well as from their corresponding “compound values”. The residual activity (in %) for each compound well was calculated by using the following formula: Res. Activity (%)=100×[(cpm of compound−low control)/(high control−low control)]

[2] = mean ± SEM over the 11 human cancer cell lines, MTT, 72 hours, read-out: In Vitro IC50 Growth Inhibitory Values, m ± SEM
[3] = Homo sapiens, 72 h, read-out: In Vitro IC50 Growth Inhibitory Values, m ± SEM

T1 sequence (P30291 whole entry): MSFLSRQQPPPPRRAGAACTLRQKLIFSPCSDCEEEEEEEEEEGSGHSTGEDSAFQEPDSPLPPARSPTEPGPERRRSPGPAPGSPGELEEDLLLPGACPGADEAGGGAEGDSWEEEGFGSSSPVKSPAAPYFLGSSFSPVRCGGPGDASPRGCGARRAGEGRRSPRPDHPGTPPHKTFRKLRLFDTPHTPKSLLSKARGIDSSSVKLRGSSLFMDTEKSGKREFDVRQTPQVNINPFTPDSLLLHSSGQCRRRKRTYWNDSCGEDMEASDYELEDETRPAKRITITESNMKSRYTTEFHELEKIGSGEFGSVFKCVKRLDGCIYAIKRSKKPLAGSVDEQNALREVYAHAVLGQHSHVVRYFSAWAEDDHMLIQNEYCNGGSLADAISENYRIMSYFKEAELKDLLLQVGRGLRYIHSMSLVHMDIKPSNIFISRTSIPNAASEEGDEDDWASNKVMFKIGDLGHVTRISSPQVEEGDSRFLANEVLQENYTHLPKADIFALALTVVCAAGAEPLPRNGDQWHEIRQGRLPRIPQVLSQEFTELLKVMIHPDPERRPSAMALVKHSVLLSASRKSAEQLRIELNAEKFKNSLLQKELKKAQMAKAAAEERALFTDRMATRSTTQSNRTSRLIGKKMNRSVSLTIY

In the case of COc1cc(C(=O)OCCOC(=O)c2ccc(O)c(OC)c2)ccc1O [DLT1, Ethane-1,2-diyl bis-(4-hydroxy-3-methoxybenzoate)], the IC50 (VM48 melanoma cells; MTT, 72 hours of incubation) is reported as 53 µM and the IC50 [1, 2] is reported as 53 µM.

COc1cc(C(=O)OCCCCCCOC(=O)c2ccc(O)c(OC)c2)ccc1O [DLT11, Hexane-1,6-diyl bis-(4-hydroxy-3-methoxybenzoate)] showed an IC50 (VM48 melanoma cells; MTT, 72 hours of incubation) of 56 µM, an IC50 ([1]; Homo sapiens, MTT colorimetric assay, read-out: IC50 growth inhibitory values, range depending on the cancer cell line analyzed) of 22 to 71 µM and an IC50 [1, 2] of 49 µM.

For COc1cc(C(=O)OCc2cc(COC(=O)c3ccc(O)c(OC)c3)cc(COC(=O)c3ccc(O)c(OC)c3)c2)ccc1O [DLT95, [3,5-bis[(4-hydroxy-3-methoxy-benzoyl)oxymethyl]phenyl]methyl 4-hydroxy-3-methoxy-benzoate], the IC50 (WEE1 kinase) was > 100 µM.

O=C(OCc1cc(COC(=O)c2ccc(O)c(Cl)c2)cc(COC(=O)c2ccc(O)c(Cl)c2)c1)c1ccc(O)c(Cl)c1 [DLT95-Cl, [3,5-bis[(4-hydroxy-3-chloro-benzoyl)oxymethyl]phenyl]methyl 4-hydroxy-3-chloro-benzoate] was tested, and the IC50 (VM48 melanoma cells; 72 h) was 32 µM, the IC50 (WEE1 kinase) was 3.74 µM and the inhibition at 57 µM (WEE1 kinase) was ≥ 50%. For the same compound, the IC50 [1, 3] was 29 ± 1 µM.

For O=C(OCc1cc(COC(=O)c2ccc(O)c(F)c2)cc(COC(=O)c2ccc(O)c(F)c2)c1)c1ccc(O)c(F)c1 [DLT95-F, [3,5-bis[(4-hydroxy-3-fluoro-benzoyl)oxymethyl]phenyl]methyl 4-hydroxy-3-fluoro-benzoate], the IC50 (VM48 melanoma cells; 72 h) was 61 µM, the IC50 (WEE1 kinase) was 7.12 µM and the inhibition at 57 µM (WEE1 kinase) was ≥ 50%. The IC50 [1, 3] was 33 ± 2 µM.

With COc1cc(C(=O)O)ccc1O [vanillic acid, reference compound] the IC50 (VM48 melanoma cells; MTT, 72 hours of incubation) was > 1000 µM, the IC50 (WEE1 kinase) was > 100 µM and the IC50 [1, 2] was > 1000 µM.
